Measurements reported in patent US20260283968A1, “METHOD FOR PRODUCING MILK LIKE PRODUCTS” (SOCIÉTÉ DES PRODUITS NESTLÉ S.A., priority 2023, published 2026).

Key:
[1] = system: iPSCs derived mammary gland organoids; assay: Flow cytometry quantification of mammary gland progenitor markers during 3D differentiation of iPSCs; format: cell-based, human; settings: 20 ng/mL BMP4, 1 μM RA, single or combination, 42 days or 31 days protocol, vs control condition
From the text: In order to generate milk bioactives that closely resemble those found in human breast milk, different methods using bone morphogenetic protein 4 (BMP4) and retinoic acid (RA) in 42 days and 31 days as a shortened time-course protocol were established in a 3D-platform using iPSCs derived mammary gland organoids as a biomimetic model of the human mammary gland (FIG. 6).

[2] = system: iPS-derived mammary-gland cells; assay: LC-MS/MS targeted proteomic analysis of osteopontin secretion in culture media; format: cell-based, human; settings: BMP4 and RA added to the differentiation culture medium

Row | Molecule | expression of mammary gland progenitor markers EpCAM (CD326), CD49f, MUC1 (CD227), GATA3 [1] | expression and secretion of milk-specific bioactive marker osteopontin (OPN) [2]
1 | CC1=C(/C=C/C(C)=C/C=C/C(C)=C/C(=O)O)C(C)(C)CCC1 [RA, retinoic acid] | can induce the expression of mammary gland progenitor markers | improve expression and secretion levels of milk-specific bioactive markers
2 | BMP4: bone morphogenetic protein 4, differentiation factor added to the culture medium (protein, UniProt P12644 293-408, looked up) Bone morphogenetic protein 4: SPKHHSQRARKKNKNCRRHSLYVDFSDVGWNDWIVAPPGYQAFYCHGDCPFPLADHLNSTNHAIVQTLVNSVNSSIPKACCVPTELSAISMLYLDEYDKVVLKNYQEMVVEGCGCR | can induce the expression of mammary gland progenitor markers | improve expression and secretion levels of milk-specific bioactive markers
